Measured values from patent US20260274807A1 (University of Health Sciences and Pharmacy in St. Louis, priority 2023, published 2026).

Assays:
ERRα = target: T1, ERRα (Homo sapiens, UniProt P11474); test: ERRE luciferase reporter assay in HEK293 cells transfected with pcDNA3.1 ERRα; type: cell-based; parameters: key to EC50 (ERRα) μM: * <1 μM; ** 1-5 μM; *** >5 μM; i.a. (inactive); settings: HEK293 cells transfected with ERRE reporter construct and pcDNA3.1 ERRα; compound for 24 hours; luciferase activity
T1 construct: expressed in transfected cells; host or cells: HEK293
T1 sequence (P11474 1-423): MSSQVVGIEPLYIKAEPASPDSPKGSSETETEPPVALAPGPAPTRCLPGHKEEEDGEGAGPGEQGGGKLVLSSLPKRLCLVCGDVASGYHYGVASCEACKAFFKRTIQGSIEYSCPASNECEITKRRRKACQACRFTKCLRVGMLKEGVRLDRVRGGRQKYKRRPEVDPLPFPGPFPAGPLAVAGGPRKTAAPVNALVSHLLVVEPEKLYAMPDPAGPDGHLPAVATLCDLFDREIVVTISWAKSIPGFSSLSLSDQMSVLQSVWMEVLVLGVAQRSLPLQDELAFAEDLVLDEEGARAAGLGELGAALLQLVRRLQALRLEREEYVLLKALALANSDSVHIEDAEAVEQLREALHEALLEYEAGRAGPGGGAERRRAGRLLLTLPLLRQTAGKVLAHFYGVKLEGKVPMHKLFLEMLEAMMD
Procedure: (§1) HEK293 cells were maintained in Dulbecco's modified Eagles medium (DMEM) supplemented with 10% fetal bovine serum at 37° C. under […]. […] Cells were transfected with ERRE reporter construct and pcDNA3.1 ERRα or ERRγ. Twenty-four-hours post-transfection, the cells were treated with vehicle or compound (various concentrations) for 24 hours (4 wells per dose). Luciferase activity was measured using the One-Glo Tox luciferase reporter assay system (Promega) and EC50s were calculated using GraphPad Prism software.

ERRγ = target: T2, ERRγ (Homo sapiens, UniProt P62508); test: ERRE luciferase reporter assay in HEK293 cells transfected with pcDNA3.1 ERRγ; type: cell-based; parameters: key to EC50 (ERRγ) μM: * <1 μM; ** 1-5 μM; *** >5 μM; i.a. (inactive); settings: HEK293 cells transfected with ERRE reporter construct and pcDNA3.1 ERRγ; compound for 24 hours; luciferase activity
T2 construct: expressed in transfected cells; host or cells: HEK293
T2 sequence (P62508 1-458): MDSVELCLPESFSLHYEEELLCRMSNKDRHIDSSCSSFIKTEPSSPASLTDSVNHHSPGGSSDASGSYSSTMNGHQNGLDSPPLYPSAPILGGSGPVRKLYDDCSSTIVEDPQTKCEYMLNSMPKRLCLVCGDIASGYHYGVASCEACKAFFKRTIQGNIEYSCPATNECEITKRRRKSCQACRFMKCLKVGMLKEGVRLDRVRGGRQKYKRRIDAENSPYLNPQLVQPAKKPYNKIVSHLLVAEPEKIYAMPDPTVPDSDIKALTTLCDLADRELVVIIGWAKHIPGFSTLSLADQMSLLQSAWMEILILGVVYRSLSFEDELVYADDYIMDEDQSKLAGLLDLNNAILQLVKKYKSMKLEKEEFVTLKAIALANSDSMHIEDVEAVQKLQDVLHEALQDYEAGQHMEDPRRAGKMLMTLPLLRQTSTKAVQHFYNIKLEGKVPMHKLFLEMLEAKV
Procedure: as §1

| EC50 (ERRα) | EC50 (ERRγ) | EC50 (ERRα) μM (ERRα) | EC50 (ERRγ) μM (ERRγ) | Structure (SMILES) |
| --- | --- | --- | --- | --- |
| < 1000 nM | < 1000 nM | – | – | Clc1ccc(-c2nnc(-c3ccccc3)o2)cc1 [Entry 2] |
| < 1000 nM | < 1000 nM | – | – | COc1ccc(-c2nnc(-c3ccc(Br)cc3)o2)cc1 [Entry 5] |
| < 1000 nM | < 1000 nM | – | – | Clc1ccc(-c2nnc(-c3ccc(Cl)cc3)o2)cc1 [Entry 6] |
| < 1000 nM | < 1000 nM | – | – | O=[N+]([O-])c1ccc(-c2nnc(-c3ccccc3)o2)cc1 [Entry 7, 2-(4-nitrophenyl)-5-phenyl-1,3,4-oxadiazole] |
| < 1000 nM | < 1000 nM | – | – | Cc1ccccc1-c1nnc(-c2ccccc2)o1 [Entry 8] |
| > 5000 nM | > 5000 nM | – | – | c1ccc(-c2nnc(-c3ccc4ccccc4n3)o2)cc1 [Entry 14, 2-phenyl-5-(quinolin-2-yl)-1,3,4-oxadiazole] |
| – | – | i.a. | i.a. | c1ccc(-c2nnc(-c3ccnc4ccccc34)o2)cc1 [Entry 15, 2-phenyl-5-(quinolin-4-yl)-1,3,4-oxadiazole] |
| < 1000 nM | < 1000 nM | – | – | COc1ccc(-c2nnc(-c3ccc(C)o3)o2)cc1 [Entry 19, 2-(4-methoxyphenyl)-5-(5-methylfuran-2-yl)-1,3,4-oxadiazole] |
| < 1000 nM | < 1000 nM | – | – | COc1ccc(-c2nnc(-c3cccs3)o2)cc1 [Entry 20, 2-(4-methoxyphenyl)-5-(thiophen-2-yl)-1,3,4-oxadiazole] |
| 1000 to 5000 nM | 1000 to 5000 nM | – | – | COc1ccc(-c2nnc(-c3ccc(N(C)C)cc3)o2)cc1 [Entry 21, 4-(5-(4-methoxyphenyl)-1,3,4-oxadiazol-2-yl)-N,N-dimethylaniline] |
| < 1000 nM | < 1000 nM | – | – | COc1ccc(-c2nnc(-c3ccnc4ccccc34)o2)cc1 [Entry 22, 2-(4-methoxyphenyl)-5-(quinolin-4-yl)-1,3,4-oxadiazole] |
| < 1000 nM | < 1000 nM | – | – | COc1ccc(-c2nnc(-c3ccc4ccccc4n3)o2)cc1 [Entry 23, 2-(4-methoxyphenyl)-5-(quinolin-2-yl)-1,3,4-oxadiazole] |
| < 1000 nM | < 1000 nM | – | – | COc1ccc(-c2nnc(-c3ccccc3Cl)o2)cc1 [Entry 28, 2-(2-chlorophenyl)-5-(4-methoxyphenyl)-1,3,4-oxadiazole] |
| < 1000 nM | < 1000 nM | – | – | COc1ccc(-c2nnc(-c3cccc(OC)c3)o2)cc1 [Entry 29, 2-(3-methoxyphenyl)-5-(4-methoxyphenyl)-1,3,4-oxadiazole] |
| < 1000 nM | < 1000 nM | – | – | Cc1ccc(-c2nnc(-c3cccc([N+](=O)[O-])c3)o2)cc1 [Entry 38, 2-(3-nitrophenyl)-5-(p-tolyl)-1,3,4-oxadiazole] |
| < 1000 nM | < 1000 nM | – | – | Cc1ccc(-c2nnc(-c3ccccc3Cl)o2)cc1 [Entry 40, 2-(2-chlorophenyl)-5-(p-tolyl)-1,3,4-oxadiazole] |
| < 1000 nM | < 1000 nM | – | – | COc1cccc(-c2nnc(-c3ccc(C)cc3)o2)c1 [Entry 41, 2-(3-methoxyphenyl)-5-(p-tolyl)-1,3,4-oxadiazole] |
| – | > 5000 nM | – | – | O=[N+]([O-])c1ccc(-c2nnc(-c3cccc(C(F)(F)F)c3)o2)cc1 [Entry 64, 2-(4-nitrophenyl)-5-(3-(trifluoromethyl)phenyl)-1,3,4-oxadiazole] |

The next lines start with the molecule.

| Structure (SMILES) | EC50 (ERRα) | EC50 (ERRγ) | EC50 (ERRα) μM (ERRα) | EC50 (ERRγ) μM (ERRγ) |
| --- | --- | --- | --- | --- |
| COc1ccc(-c2nnc(-c3cccc(C(F)(F)F)c3)o2)cc1 | 1000 to 5000 nM | > 5000 nM | – | – |
| c1ccc(-c2nnc(-c3ccccc3)o2)cc1 [Entry 1] | < 1000 nM | < 1000 nM | – | – |
| c1ccc(-c2nnc(-c3cccs3)o2)cc1 [Entry 3] | < 1000 nM | < 1000 nM | – | – |
| Cc1ccc(-c2nnc(-c3ccccc3)o2)cc1 [Entry 4, 2-phenyl-5-(p-tolyl)-1,3,4-oxadiazole] | < 1000 nM | < 1000 nM | – | – |
| Brc1ccc(-c2nnc(-c3ccccc3)o2)cc1 [Entry 9] | < 1000 nM | < 1000 nM | – | – |
| O=[N+]([O-])c1ccc(-c2nnc(-c3ccccc3[N+](=O)[O-])o2)cc1 [Entry 11, 2-(2-nitrophenyl)-5-(4-nitrophenyl)-1,3,4-oxadiazole] | 1000 to 5000 nM | 1000 to 5000 nM | – | – |
| O=[N+]([O-])c1ccc(-c2nnc(-c3cccc([N+](=O)[O-])c3)o2)cc1 [Entry 12, 2-(3-nitrophenyl)-5-(4-nitrophenyl)-1,3,4-oxadiazole] | 1000 to 5000 nM | 1000 to 5000 nM | – | – |
| O=[N+]([O-])c1ccc(-c2nnc(-c3ccc([N+](=O)[O-])cc3)o2)cc1 [Entry 13, 2,5-bis(4-nitrophenyl)-1,3,4-oxadiazole] | 1000 to 5000 nM | 1000 to 5000 nM | – | – |
| O=[N+]([O-])c1ccccc1Cc1nnc(-c2ccc(C(F)(F)F)cc2)o1 [Entry 16, 2-(2-nitrobenzyl)-5-(4-(trifluoromethyl)phenyl)-1,3,4-oxadiazole] | < 1000 nM | < 1000 nM | – | – |
| COc1ccc(-c2nnc(-c3ccco3)o2)cc1 [Entry 18, 2-(furan-2-yl)-5-(4-methoxyphenyl)-1,3,4-oxadiazole] | < 1000 nM | < 1000 nM | – | – |
| COc1ccc(-c2nnc(-c3ccccn3)o2)cc1 [Entry 24, 2-(4-methoxyphenyl)-5-(pyridin-2-yl)-1,3,4-oxadiazole] | – | – | i.a. | i.a. |
| COc1ccc(-c2nnc(-c3cccc([N+](=O)[O-])c3)o2)cc1 [Entry 26, 2-(4-methoxyphenyl)-5-(3-nitrophenyl)-1,3,4-oxadiazole] | 1000 to 5000 nM | < 1000 nM | – | – |
| COc1ccc(-c2nnc(-c3ccc(OC)cc3)o2)cc1 [Entry 30, 2,5-bis(4-methoxyphenyl)-1,3,4-oxadiazole] | < 1000 nM | < 1000 nM | – | – |
| Cc1ccc(-c2nnc(-c3ccco3)o2)cc1 [Entry 31, 2-(furan-2-yl)-5-(p-tolyl)-1,3,4-oxadiazole] | < 1000 nM | < 1000 nM | – | – |
| Cc1ccc(-c2nnc(-c3ccc(C)o3)o2)cc1 [Entry 32, 2-(5-methylfuran-2-yl)-5-(p-tolyl)-1,3,4-oxadiazole] | < 1000 nM | < 1000 nM | – | – |
| Cc1ccc(-c2nnc(-c3cccs3)o2)cc1 [Entry 33, 2-(thiophen-2-yl)-5-(p-tolyl)-1,3,4-oxadiazole] | < 1000 nM | < 1000 nM | – | – |
| Cc1ccc(-c2nnc(-c3ccnc4ccccc34)o2)cc1 [Entry 34, 2-(quinolin-4-yl)-5-(p-tolyl)-1,3,4-oxadiazole] | < 1000 nM | < 1000 nM | – | – |
| Cc1ccc(-c2nnc(-c3ccccn3)o2)cc1 [Entry 36, 2-(pyridin-2-yl)-5-(p-tolyl)-1,3,4-oxadiazole] | < 1000 nM | < 1000 nM | – | – |
| Cc1ccc(-c2nnc(-c3ccccc3[N+](=O)[O-])o2)cc1 [Entry 37, 2-(2-nitrophenyl)-5-(p-tolyl)-1,3,4-oxadiazole] | < 1000 nM | < 1000 nM | – | – |
| Cc1ccc(-c2nnc(-c3ccc([N+](=O)[O-])cc3)o2)cc1 [Entry 39, 2-(4-nitrophenyl)-5-(p-tolyl)-1,3,4-oxadiazole] | < 1000 nM | < 1000 nM | – | – |
| COc1ccc(-c2nnc(-c3ccc(C)cc3)o2)cc1 [Entry 42, 2-(4-methoxyphenyl)-5-(p-tolyl)-1,3,4-oxadiazole] | < 1000 nM | < 1000 nM | – | – |
| FC(F)(F)c1ccc(-c2nnc(-c3ccccc3)o2)cc1 [Entry 43, 2-phenyl-5-(4-(trifluoromethyl)phenyl)-1,3,4-oxadiazole] | 1000 to 5000 nM | 1000 to 5000 nM | – | – |
